Measurements taken from patent US5192791A, “Fused ring heterocycles and pharmaceutical compositions containing same” (Biofor, Ltd., priority 1990, dated 1993).

How the values were obtained:
yeast-induced fever = assay: Antipyretic Evaluation (yeast-induced fever in rats); format: in vivo, male Sprague-Dawley rats; conditions: 300 mg/kg, oral, 19 hours after yeast; temperature one hour after dosing
Protocol: Antipyretic: This activity was evaluated by creating a yeast-induced fever in rats according to a modified method of the procedure described by Loux et al in "Toxicology and Applied Pharmacology", Vol. 22: page 672 (1972). In this assay rats injected with yeast in distilled water were dosed with test compounds, aspirin (positive control) and a vehicle (negative control) and the observed differences in body temperature were analyzed statistically.
Antipyretic activity was evaluated using a modification of the test described by Loux et al, in Toxicology and Applied Pharmacology, 22:672 (1972), that is, yeast-induced fever in rats. Each test group consisted of ten male Sprague-Dawley rats (Charles River Laboratories), weighing 180-225 grams each. Eighteen hours prior to compound administration the rats were weighed and body temperatures were recorded. Food was removed with water available ad libitum. […]
Test compounds suspended in 0.25% methylcellulose (0.25% MC) or olive oil were administered orally by gavage nineteen hours following the yeast injection. Body temperatures were taken and recorded one hour after compound administration. […] The mean temperature of the compound-treated groups, positive control group (Aspirin) and negative control group (vehicle) were calculated at 18 hours and 20 hours. The data was analyzed statistically using a paired-samples Student's t-Test.

[1] = test system: Mycobacterium butyricum adjuvant arthritis, hind paw edema; assay: Adjuvant Arthritis Assay: Developing (hind paw edema, rats); format: in vivo, female Lewis rats; conditions: 96 h, dosed once daily for 4 days in 0.25% methylcellulose, paw edema on fifth day
Protocol: Anti-Inflammatory: This activity was evaluated via a modification of the Adjuvant Arthritis Assay (AA) described by S. […] This assay measures the ability of the test compound to antagonize local edema, a characteristic of the inflammatory response. […] The left and right rear paws of female Lewis rats (Charles River Laboratories) weighing 160-180 grams each were measured by mercury displacement prior to injection (Day Zero). Adjuvant arthritis was induced in this rat colony by subcutaneous injection of Mycobacterium butyricum (0.75 mg in 0.1 ml light mineral oil, Fisher) using an automated Cornwall syringe. On days 11-15 post-adjuvant the injected animals with 0.25 to 0.75 ml. paw edema were selected and distributed evenly, according to edema size, into control and experimental groups of ten rats each. Vehicle control and drug treatments were assigned to the groups at random. The assay was performed using a variable dose level for each test compound per kilogram per day in 0.25% methylcellulose vehicle. All animals were dosed once daily for 4 days and on the fifth day both hind paw volumes were again measured using mercury displacement. The hind paw edema was determined for each rat by subtracting the hind paw volume measured on Day Zero from the hind paw volume measured on the fifth day of the study. Group means were determined and the drug effect was calculated as percent inhibition of the hind paw edema according to the following equation: [formula] […] The known anti-inflammatory NAPROXEN was also tested for comparison purposes.

[2] = test system: Mycobacterium butyricum adjuvant arthritis, hind paw edema; assay: Adjuvant Arthritis Assay; Immunomodulatory; format: in vivo, Lewis female rats; conditions: 50 mg/kg, oral, Day 5 to 9; edema on Day 15
Protocol: Immunomodulatory: This activity was determined by using a Modified Adjuvant Assay procedure in which female rats were injected with Mycobacterium butyricum to induce hind paw edema. The test compounds were administered orally and the difference in volume between dosed and non-dosed paws was determined.
Lewis female rats were injected in the tail subcutaneously with Mycobacterium butyricum (0.75 mg in 0.1 ml light mineral oil, Fisher) on Day Zero. Prior to injection the volumes of the left and right rear paws were measured by mercury displacement. All rats were dosed orally with vehicle or test compounds on Day 5 to 9 inclusive. The volume of both hind paws were determined on Day 15 and the percent inhibitions were calculated based upon average edema on Day 15 relative to the edema mean in the control group.

Structure (SMILES) | Change in Temperature, 18-20 Hour Period (yeast-induced fever) [°C] | ED50 [1] [mg/kg] | % Inhibition [2] [%]
CC(=O)Oc1ccccc1C(=O)O [Aspirin, reference compound] | -2.05 |  | 
CC(C)(C)c1cc(N2CCCC2=O)cc(C(C)(C)C)c1O [Example 1, 1-(3,5-di-tert-butyl-4-hydroxyphenyl)pyrrolidin-2-one] | -1.55 | 21 | 39
CC(C)(C)c1cc(N2CCCCC2=O)cc(C(C)(C)C)c1O [Example 2, 1-(3,5-di-tert-butyl-4-hydroxyphenyl)piperidin-2-one] |  | 34 | 
COc1ccc2cc([C@H](C)C(=O)O)ccc2c1 [NAPROXEN, reference compound] |  | 28 | 
